Tests used:
[1] = biological target: T1, Metabotropic glutamate receptor 1 (Homo sapiens, UniProt Q13255); assay: Positive allosteric modulation of human mGluR1 by calcium mobilization assay relative to control; format: functional
Target sequence in this assay (Q13255 19-1194 limits assumed): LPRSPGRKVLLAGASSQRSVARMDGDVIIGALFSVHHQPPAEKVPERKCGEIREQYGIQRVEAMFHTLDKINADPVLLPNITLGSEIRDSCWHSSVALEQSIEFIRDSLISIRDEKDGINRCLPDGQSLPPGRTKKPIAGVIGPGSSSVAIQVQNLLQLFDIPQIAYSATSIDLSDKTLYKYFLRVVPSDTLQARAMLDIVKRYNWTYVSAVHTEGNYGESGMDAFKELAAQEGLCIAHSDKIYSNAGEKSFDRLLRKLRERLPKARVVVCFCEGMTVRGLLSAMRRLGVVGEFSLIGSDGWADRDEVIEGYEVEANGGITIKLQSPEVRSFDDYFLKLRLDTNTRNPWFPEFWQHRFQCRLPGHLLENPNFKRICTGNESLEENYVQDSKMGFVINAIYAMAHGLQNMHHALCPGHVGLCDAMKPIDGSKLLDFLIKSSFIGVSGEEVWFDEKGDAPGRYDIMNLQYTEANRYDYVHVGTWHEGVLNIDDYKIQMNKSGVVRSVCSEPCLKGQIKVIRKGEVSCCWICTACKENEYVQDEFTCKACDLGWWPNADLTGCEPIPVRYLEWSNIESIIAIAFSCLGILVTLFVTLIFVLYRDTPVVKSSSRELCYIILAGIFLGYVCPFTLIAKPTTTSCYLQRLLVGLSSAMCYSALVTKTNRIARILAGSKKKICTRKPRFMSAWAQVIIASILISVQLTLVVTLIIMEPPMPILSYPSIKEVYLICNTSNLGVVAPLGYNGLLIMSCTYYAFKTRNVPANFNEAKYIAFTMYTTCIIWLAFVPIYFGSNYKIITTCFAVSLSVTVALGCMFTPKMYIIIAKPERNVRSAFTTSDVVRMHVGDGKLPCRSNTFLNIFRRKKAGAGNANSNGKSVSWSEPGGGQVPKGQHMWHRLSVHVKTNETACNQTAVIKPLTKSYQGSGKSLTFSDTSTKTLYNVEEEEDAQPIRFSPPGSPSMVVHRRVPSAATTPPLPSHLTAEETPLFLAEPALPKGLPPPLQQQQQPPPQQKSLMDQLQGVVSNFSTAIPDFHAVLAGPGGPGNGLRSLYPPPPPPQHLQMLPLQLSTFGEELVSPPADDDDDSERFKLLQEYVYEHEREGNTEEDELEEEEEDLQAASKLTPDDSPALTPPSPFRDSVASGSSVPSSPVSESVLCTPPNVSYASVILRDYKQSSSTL

[2] = species: Homo sapiens; assay: Selectivity ratio of EC50 for human mGluR4 to EC50 for human mGluR1
[3] = biological target: T2, Metabotropic glutamate receptor 4 (Homo sapiens, UniProt Q14833); assay: Positive allosteric modulation of human mGluR4 by calcium mobilization assay relative to PHCCC; format: functional
[4] = biological target: T1, Metabotropic glutamate receptor 1; assay: Positive allosteric modulation of human mGluR1 by calcium mobilization assay; format: functional
Target sequence in this assay (Q13255 whole entry): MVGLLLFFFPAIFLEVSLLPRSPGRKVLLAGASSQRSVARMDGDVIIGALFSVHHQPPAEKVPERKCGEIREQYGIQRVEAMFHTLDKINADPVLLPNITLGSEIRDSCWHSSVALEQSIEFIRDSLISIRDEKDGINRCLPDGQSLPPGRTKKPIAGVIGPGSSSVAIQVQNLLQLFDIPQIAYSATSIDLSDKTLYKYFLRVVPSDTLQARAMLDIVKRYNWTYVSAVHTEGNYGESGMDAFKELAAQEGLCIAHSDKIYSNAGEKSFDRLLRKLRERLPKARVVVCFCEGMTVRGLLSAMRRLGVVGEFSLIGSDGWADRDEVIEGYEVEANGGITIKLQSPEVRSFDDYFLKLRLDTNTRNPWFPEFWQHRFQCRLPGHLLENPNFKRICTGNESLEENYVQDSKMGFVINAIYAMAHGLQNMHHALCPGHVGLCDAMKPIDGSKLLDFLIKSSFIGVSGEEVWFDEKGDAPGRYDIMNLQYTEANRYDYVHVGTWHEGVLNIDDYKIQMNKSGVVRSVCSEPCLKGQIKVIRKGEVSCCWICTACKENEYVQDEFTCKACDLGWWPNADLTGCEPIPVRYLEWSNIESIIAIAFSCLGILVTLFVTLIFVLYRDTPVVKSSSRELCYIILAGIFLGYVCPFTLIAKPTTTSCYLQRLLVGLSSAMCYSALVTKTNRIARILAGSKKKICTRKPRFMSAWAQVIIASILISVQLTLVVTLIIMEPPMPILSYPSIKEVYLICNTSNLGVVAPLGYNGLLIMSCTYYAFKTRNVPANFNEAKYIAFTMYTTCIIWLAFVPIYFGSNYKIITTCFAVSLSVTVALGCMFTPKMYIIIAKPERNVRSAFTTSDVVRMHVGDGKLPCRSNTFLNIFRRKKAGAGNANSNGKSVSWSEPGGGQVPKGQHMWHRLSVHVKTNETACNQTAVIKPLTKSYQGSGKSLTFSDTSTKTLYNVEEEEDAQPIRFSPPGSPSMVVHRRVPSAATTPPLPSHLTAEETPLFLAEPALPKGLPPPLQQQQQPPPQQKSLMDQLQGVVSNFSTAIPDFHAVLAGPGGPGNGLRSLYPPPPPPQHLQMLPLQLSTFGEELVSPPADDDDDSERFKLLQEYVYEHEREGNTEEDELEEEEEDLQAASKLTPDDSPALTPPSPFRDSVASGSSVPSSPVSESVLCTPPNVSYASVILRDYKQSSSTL

[5] = biological target: T2, Metabotropic glutamate receptor 4; assay: Positive allosteric modulation of human mGluR4 by calcium mobilization assay; format: functional
[6] = tested on: Plasma; assay: Fraction unbound in human plasma; format: ADME, cell-free
[7] = tested on: Brain; assay: Fraction unbound in rat brain; format: ADME, tissue-based
[8] = tested on: Rattus norvegicus; assay: Ratio of drug level in plasma to brain in rat at 0.2 mg/kg after 15 mins by cassette study; conditions: in vivo, 0.25 h
[9] = tested on: Plasma; assay: Fraction unbound in rat plasma; format: ADME, cell-free

T2 sequence (Q14833 whole entry): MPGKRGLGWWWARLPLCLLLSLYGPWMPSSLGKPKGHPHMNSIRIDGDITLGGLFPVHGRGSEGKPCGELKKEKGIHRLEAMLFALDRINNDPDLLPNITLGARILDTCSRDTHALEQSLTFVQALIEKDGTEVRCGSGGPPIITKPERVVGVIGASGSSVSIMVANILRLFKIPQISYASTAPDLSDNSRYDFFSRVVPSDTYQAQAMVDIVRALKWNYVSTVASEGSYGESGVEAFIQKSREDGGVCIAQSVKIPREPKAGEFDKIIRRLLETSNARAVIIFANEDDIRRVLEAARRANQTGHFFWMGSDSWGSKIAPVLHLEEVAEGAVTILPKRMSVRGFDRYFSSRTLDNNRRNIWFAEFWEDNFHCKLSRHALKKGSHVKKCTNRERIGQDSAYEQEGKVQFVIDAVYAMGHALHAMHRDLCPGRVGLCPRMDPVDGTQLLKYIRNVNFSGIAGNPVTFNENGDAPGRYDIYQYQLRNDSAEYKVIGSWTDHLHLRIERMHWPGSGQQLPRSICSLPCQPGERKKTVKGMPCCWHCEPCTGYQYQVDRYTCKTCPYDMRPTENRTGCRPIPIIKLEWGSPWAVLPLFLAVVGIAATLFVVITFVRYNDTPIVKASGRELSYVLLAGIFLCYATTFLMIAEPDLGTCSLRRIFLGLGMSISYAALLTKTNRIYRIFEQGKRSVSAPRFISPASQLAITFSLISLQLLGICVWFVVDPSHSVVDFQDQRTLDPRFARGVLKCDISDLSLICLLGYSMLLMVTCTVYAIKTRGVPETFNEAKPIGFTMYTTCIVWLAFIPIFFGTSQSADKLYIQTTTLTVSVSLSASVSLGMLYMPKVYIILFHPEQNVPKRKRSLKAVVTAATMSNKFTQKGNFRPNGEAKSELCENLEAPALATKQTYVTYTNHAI

Cc1ccoc1C(=O)Nc1ccc(N2C(=O)c3cccc(F)c3C2=O)nc1
%max [1]: 93% | Ratio EC50 [2]: 17.9 | %max [3]: 19% | EC50 [4]: 200 nM | EC50 ([4]; read-out: EC50): 198 nM | EC50 [5]: 3550 nM

COc1cc(NC(=O)c2occc2C)ccc1N1C(=O)c2cccc(F)c2C1=O
%max [1]: 103% | Ratio EC50 [2]: 13.4 | %max [3]: 73% | EC50 [4]: 145 nM | EC50 ([4]; read-out: EC50): 144 nM | EC50 [5]: 1930 nM

Cc1ccoc1C(=O)Nc1cnc(N2C(=O)c3cccc(F)c3C2=O)nc1
%max [1]: 99% | %max [3]: 24% | EC50 [4]: 5370 nM | EC50 ([4]; read-out: EC50): 5330 nM | EC50 [5]: > 10000 nM

COc1cc(NC(=O)c2occc2C)ccc1N1C(=O)c2cccc(Cl)c2C1=O
%max [1]: 93% | Ratio EC50 [2]: 36.1 | %max [3]: 103% | EC50 [4]: 18.2 nM | EC50 ([4]; read-out: EC50): 18 nM | EC50 [5]: 647 nM

Cc1cc(NC(=O)c2occc2C)ccc1N1C(=O)c2cccc(Cl)c2C1=O
%max [1]: 117% | Ratio EC50 [2]: 20.5 | %max [3]: 127% | EC50 [4]: 49 nM | EC50 ([4]; read-out: EC50): 49 nM | EC50 [5]: 1010 nM

Cc1ccoc1C(=O)Nc1ccc(N2C(=O)c3cccc(F)c3C2=O)c2ccccc12
%max [1]: 90% | Ratio EC50 [2]: 41.1 | %max [3]: 83% | EC50 [4]: 19.5 nM | EC50 ([4]; read-out: EC50): 20 nM | EC50 [5]: 809 nM

Cc1cc(NC(=O)c2occc2C)ccc1N1C(=O)c2cccc(F)c2C1=O
%max [1]: 95% | Ratio EC50 [2]: 22.4 | %max [3]: 86% | EC50 [4]: 49 nM | EC50 ([4]; read-out: EC50): 49 nM | EC50 [5]: 1100 nM

Cc1ccoc1C(=O)Nc1cnc(N2C(=O)c3ccccc3C2=O)nc1
%max [1]: 89% | Ratio EC50 [2]: 1.01 | %max [3]: 23% | EC50 [4]: 4680 nM | EC50 ([4]; read-out: EC50): 4610 nM | EC50 [5]: 4670 nM

Cc1ccoc1C(=O)Nc1ccc(N2C(=O)c3ccccc3C2=O)nc1
%max [1]: 80% | EC50 [4]: 389 nM | EC50 ([4]; read-out: EC50): 387 nM | EC50 [5]: > 10000 nM

Cc1ccoc1C(=O)Nc1ccc(N2C(=O)c3cccc(C)c3C2=O)c(C(F)(F)F)c1
%max [1]: 117% | Ratio EC50 [2]: 10.8 | %max [3]: 109% | EC50 [4]: 537 nM | EC50 ([4]; read-out: EC50): 530 nM | EC50 [5]: 5760 nM

Cc1ccoc1C(=O)Nc1ccc(N2C(=O)c3ccccc3C2=O)cc1F
%max [1]: 84% | Fu [6]: < 1% | EC50 [4]: 12.6 nM | EC50 ([4]; read-out: EC50): 13 nM | EC50 [5]: > 10000 nM | Fu [7]: < 1% | Ratio [8]: 1.57 | Fu [9]: < 1%

Cc1ccoc1C(=O)Nc1ccc(N2C(=O)c3cccc(Cl)c3C2=O)c2ccccc12
%max [1]: 92% | Ratio EC50 [2]: 22.8 | %max [3]: 102% | EC50 [4]: 22.4 nM | EC50 ([4]; read-out: EC50): 23 nM | EC50 [5]: 513 nM

COc1cc(NC(=O)c2occc2C)ccc1N1C(=O)c2ccccc2C1=O
%max [1]: 96% | Ratio EC50 [2]: 25.6 | %max [3]: 50% | EC50 [4]: 46.8 nM | EC50 ([4]; read-out: EC50): 46 nM | EC50 [5]: 1180 nM

Cc1ccoc1C(=O)Nc1ccc(N2C(=O)c3cccc(C)c3C2=O)c2ccccc12
%max [1]: 88% | Ratio EC50 [2]: 27.3 | %max [3]: 103% | EC50 [4]: 15.8 nM | EC50 ([4]; read-out: EC50): 16 nM | EC50 [5]: 429 nM

Cc1ccoc1C(=O)Nc1ccc(N2C(=O)c3ccccc3C2=O)c(F)c1
%max [1]: 101% | Ratio EC50 [2]: 11.9 | %max [3]: 65% | EC50 [4]: 22.4 nM | EC50 ([4]; read-out: EC50): 22 nM | EC50 [5]: 265 nM

Cc1ccoc1C(=O)Nc1ccc(N2C(=O)c3ccccc3C2=O)cc1C(F)(F)F
EC50 [4]: > 10000 nM | EC50 ([4]; read-out: EC50): > 10000 nM | EC50 [5]: > 10000 nM

Cc1cc(NC(=O)c2occc2C)ccc1N1C(=O)c2ccccc2C1=O
%max [1]: 105% | Ratio EC50 [2]: 9.9 | %max [3]: 75% | EC50 [4]: 89.1 nM | EC50 ([4]; read-out: EC50): 89 nM | EC50 [5]: 885 nM

Cc1ccoc1C(=O)Nc1cnc(N2C(=O)c3cccc(Cl)c3C2=O)nc1
%max [1]: 84% | Ratio EC50 [2]: 12.2 | %max [3]: 45% | EC50 [4]: 209 nM | EC50 ([4]; read-out: EC50): 208 nM | EC50 [5]: 2530 nM

Cc1ccoc1C(=O)Nc1ccc(N2C(=O)c3ccccc3C2=O)c(C(F)(F)F)c1
%max [1]: 108% | Ratio EC50 [2]: 54.1 | %max [3]: 86% | EC50 [4]: 123 nM | EC50 ([4]; read-out: EC50): 123 nM | EC50 [5]: 6660 nM

Cc1ccoc1C(=O)Nc1ccc(N2C(=O)c3cccc(C)c3C2=O)nc1
%max [1]: 105% | Ratio EC50 [2]: 52.7 | %max [3]: 100% | EC50 [4]: 95.5 nM | EC50 ([4]; read-out: EC50): 95 nM | EC50 [5]: 5000 nM

Cc1ccoc1C(=O)Nc1ccc(N2C(=O)c3ccccc3C2=O)cn1
EC50 [4]: > 10000 nM | EC50 ([4]; read-out: EC50): > 10000 nM | EC50 [5]: > 10000 nM

Cc1ccoc1C(=O)Nc1ccc(N2C(=O)c3cccc(F)c3C2=O)c(F)c1
%max [1]: 104% | Ratio EC50 [2]: 19.3 | %max [3]: 78% | EC50 [4]: 34.7 nM | EC50 ([4]; read-out: EC50): 35 nM | EC50 [5]: 674 nM

COc1cc(NC(=O)c2occc2C)ccc1N1C(=O)c2cccc(C)c2C1=O
%max [1]: 94% | Ratio EC50 [2]: 18 | %max [3]: 107% | EC50 [4]: 49 nM | EC50 ([4]; read-out: EC50): 49 nM | EC50 [5]: 882 nM

Cc1ccoc1C(=O)Nc1ccc(N2C(=O)c3ccccc3C2=O)cc1
%max [1]: 82% | EC50 [4]: 47.9 nM | EC50 ([4]; read-out: EC50): 48 nM | EC50 [5]: > 10000 nM

Cc1ccoc1C(=O)Nc1ccc(N2C(=O)c3cccc(Cl)c3C2=O)c(F)c1
%max [1]: 100% | Ratio EC50 [2]: 9.5 | %max [3]: 93% | EC50 [4]: 27.5 nM | EC50 ([4]; read-out: EC50): 28 nM | EC50 [5]: 264 nM

Cc1ccoc1C(=O)Nc1ccc(N2C(=O)c3cccc(C)c3C2=O)c(F)c1
%max [1]: 107% | Ratio EC50 [2]: 11 | %max [3]: 102% | EC50 [4]: 26.3 nM | EC50 ([4]; read-out: EC50): 26 nM | EC50 [5]: 287 nM

Cc1ccoc1C(=O)Nc1ccc(N2C(=O)c3cccc(Cl)c3C2=O)cc1
%max [1]: 101% | Ratio EC50 [2]: 16.7 | %max [3]: 35% | EC50 [4]: 28.8 nM | EC50 ([4]; read-out: EC50): 29 nM | EC50 [5]: 483 nM

COc1cc(N2C(=O)c3ccccc3C2=O)ccc1NC(=O)c1occc1C
%max [1]: 80% | EC50 [4]: 331 nM | EC50 ([4]; read-out: EC50): 330 nM | EC50 [5]: > 10000 nM

Cc1ccoc1C(=O)Nc1ccc(N2C(=O)c3ccccc3C2=O)c2ccccc12
%max [1]: 99% | Ratio EC50 [2]: 17.4 | %max [3]: 54% | EC50 [4]: 20.4 nM | EC50 ([4]; read-out: EC50): 20 nM | EC50 [5]: 353 nM

Cc1ccoc1C(=O)Nc1ccc(N2C(=O)c3cccc(Cl)c3C2=O)nc1
%max [1]: 91% | Ratio EC50 [2]: 31.9 | %max [3]: 44% | EC50 [4]: 34.7 nM | EC50 ([4]; read-out: EC50): 35 nM | EC50 [5]: 1110 nM

Cc1ccoc1C(=O)Nc1ccc(N2C(=O)c3cccc(C)c3C2=O)cc1
%max [1]: 108% | Ratio EC50 [2]: 21.7 | %max [3]: 62% | EC50 [4]: 16.2 nM | EC50 ([4]; read-out: EC50): 16 nM | EC50 [5]: 350 nM

Cc1ccoc1C(=O)Nc1ccc(N2C(=O)c3cccc(F)c3C2=O)cc1
%max [1]: 96% | Ratio EC50 [2]: 8.6 | %max [3]: 34% | EC50 [4]: 43.7 nM | EC50 ([4]; read-out: EC50): 44 nM | EC50 [5]: 382 nM

Cc1cc(NC(=O)c2occc2C)ccc1N1C(=O)c2cccc(C)c2C1=O
%max [1]: 100% | Ratio EC50 [2]: 19.8 | %max [3]: 122% | EC50 [4]: 21.4 nM | EC50 ([4]; read-out: EC50): 21 nM | EC50 [5]: 422 nM

Cc1ccoc1C(=O)Nc1ccc(N2C(=O)c3cccc(Cl)c3C2=O)c(C(F)(F)F)c1
%max [1]: 105% | Ratio EC50 [2]: 23.3 | %max [3]: 120% | EC50 [4]: 105 nM | EC50 ([4]; read-out: EC50): 106 nM | EC50 [5]: 2470 nM

Cc1ccoc1C(=O)Nc1cnc(N2C(=O)c3cccc(C)c3C2=O)nc1
%max [1]: 111% | Ratio EC50 [2]: 5.95 | %max [3]: 104% | EC50 [4]: 759 nM | EC50 ([4]; read-out: EC50): 751 nM | EC50 [5]: 4470 nM

Cc1ccoc1C(=O)Nc1ccc(N2C(=O)c3cccc(F)c3C2=O)c(C(F)(F)F)c1
%max [1]: 110% | Ratio EC50 [2]: 18.5 | %max [3]: 80% | EC50 [4]: 155 nM | EC50 ([4]; read-out: EC50): 155 nM | EC50 [5]: 2870 nM

Cc1cc(N2C(=O)c3ccccc3C2=O)ccc1NC(=O)c1occc1C
%max [1]: 90% | Ratio EC50 [2]: 40.6 | %max [3]: 52% | EC50 [4]: 15.1 nM | EC50 ([4]; read-out: EC50): 15 nM | EC50 [5]: 609 nM

Cc1ccoc1C(=O)Nc1ccc(N2C(=O)c3ccccc3C2=O)cc1Cl
%max [1]: 68% | Fu [6]: < 1% | EC50 [4]: 28.8 nM | EC50 ([4]; read-out: EC50): 29 nM | EC50 [5]: > 10000 nM | Fu [7]: < 1% | Ratio [8]: 0.12 | Fu [9]: < 1%

Cc1ccoc1C(=O)Nc1ncc(N2C(=O)c3ccccc3C2=O)cn1
EC50 [4]: > 10000 nM | EC50 ([4]; read-out: EC50): > 10000 nM | EC50 [5]: > 10000 nM

— ChEMBL document CHEMBL3632577, “Lead optimization of the VU0486321 series of mGlu1 PAMs. Part 1: SAR of modifications to the central aryl core” (Bioorg Med Chem Lett, 2015)
